For 76 compounds, IC50 results are on record in patent publication US9346769B2, “Tetrazolones as inhibitors of fatty acid synthase” (Infinity Pharmaceuticals, Inc., priority 2010, dated 2016).

Structures are written as SMILES.

For the assay, the target named is T1, human FASN (Homo sapiens, UniProt P49327).
T1 construct: was purified from SKBR3 cells using procedures modified from those in Jayakumar et al; endogenous in cells; host or cells: SKBR3 human breast cancer cells (ATCC); Endogenous enzyme purified by ammonium sulfate precipitation and a mono Q column
T1 sequence (P49327 whole entry): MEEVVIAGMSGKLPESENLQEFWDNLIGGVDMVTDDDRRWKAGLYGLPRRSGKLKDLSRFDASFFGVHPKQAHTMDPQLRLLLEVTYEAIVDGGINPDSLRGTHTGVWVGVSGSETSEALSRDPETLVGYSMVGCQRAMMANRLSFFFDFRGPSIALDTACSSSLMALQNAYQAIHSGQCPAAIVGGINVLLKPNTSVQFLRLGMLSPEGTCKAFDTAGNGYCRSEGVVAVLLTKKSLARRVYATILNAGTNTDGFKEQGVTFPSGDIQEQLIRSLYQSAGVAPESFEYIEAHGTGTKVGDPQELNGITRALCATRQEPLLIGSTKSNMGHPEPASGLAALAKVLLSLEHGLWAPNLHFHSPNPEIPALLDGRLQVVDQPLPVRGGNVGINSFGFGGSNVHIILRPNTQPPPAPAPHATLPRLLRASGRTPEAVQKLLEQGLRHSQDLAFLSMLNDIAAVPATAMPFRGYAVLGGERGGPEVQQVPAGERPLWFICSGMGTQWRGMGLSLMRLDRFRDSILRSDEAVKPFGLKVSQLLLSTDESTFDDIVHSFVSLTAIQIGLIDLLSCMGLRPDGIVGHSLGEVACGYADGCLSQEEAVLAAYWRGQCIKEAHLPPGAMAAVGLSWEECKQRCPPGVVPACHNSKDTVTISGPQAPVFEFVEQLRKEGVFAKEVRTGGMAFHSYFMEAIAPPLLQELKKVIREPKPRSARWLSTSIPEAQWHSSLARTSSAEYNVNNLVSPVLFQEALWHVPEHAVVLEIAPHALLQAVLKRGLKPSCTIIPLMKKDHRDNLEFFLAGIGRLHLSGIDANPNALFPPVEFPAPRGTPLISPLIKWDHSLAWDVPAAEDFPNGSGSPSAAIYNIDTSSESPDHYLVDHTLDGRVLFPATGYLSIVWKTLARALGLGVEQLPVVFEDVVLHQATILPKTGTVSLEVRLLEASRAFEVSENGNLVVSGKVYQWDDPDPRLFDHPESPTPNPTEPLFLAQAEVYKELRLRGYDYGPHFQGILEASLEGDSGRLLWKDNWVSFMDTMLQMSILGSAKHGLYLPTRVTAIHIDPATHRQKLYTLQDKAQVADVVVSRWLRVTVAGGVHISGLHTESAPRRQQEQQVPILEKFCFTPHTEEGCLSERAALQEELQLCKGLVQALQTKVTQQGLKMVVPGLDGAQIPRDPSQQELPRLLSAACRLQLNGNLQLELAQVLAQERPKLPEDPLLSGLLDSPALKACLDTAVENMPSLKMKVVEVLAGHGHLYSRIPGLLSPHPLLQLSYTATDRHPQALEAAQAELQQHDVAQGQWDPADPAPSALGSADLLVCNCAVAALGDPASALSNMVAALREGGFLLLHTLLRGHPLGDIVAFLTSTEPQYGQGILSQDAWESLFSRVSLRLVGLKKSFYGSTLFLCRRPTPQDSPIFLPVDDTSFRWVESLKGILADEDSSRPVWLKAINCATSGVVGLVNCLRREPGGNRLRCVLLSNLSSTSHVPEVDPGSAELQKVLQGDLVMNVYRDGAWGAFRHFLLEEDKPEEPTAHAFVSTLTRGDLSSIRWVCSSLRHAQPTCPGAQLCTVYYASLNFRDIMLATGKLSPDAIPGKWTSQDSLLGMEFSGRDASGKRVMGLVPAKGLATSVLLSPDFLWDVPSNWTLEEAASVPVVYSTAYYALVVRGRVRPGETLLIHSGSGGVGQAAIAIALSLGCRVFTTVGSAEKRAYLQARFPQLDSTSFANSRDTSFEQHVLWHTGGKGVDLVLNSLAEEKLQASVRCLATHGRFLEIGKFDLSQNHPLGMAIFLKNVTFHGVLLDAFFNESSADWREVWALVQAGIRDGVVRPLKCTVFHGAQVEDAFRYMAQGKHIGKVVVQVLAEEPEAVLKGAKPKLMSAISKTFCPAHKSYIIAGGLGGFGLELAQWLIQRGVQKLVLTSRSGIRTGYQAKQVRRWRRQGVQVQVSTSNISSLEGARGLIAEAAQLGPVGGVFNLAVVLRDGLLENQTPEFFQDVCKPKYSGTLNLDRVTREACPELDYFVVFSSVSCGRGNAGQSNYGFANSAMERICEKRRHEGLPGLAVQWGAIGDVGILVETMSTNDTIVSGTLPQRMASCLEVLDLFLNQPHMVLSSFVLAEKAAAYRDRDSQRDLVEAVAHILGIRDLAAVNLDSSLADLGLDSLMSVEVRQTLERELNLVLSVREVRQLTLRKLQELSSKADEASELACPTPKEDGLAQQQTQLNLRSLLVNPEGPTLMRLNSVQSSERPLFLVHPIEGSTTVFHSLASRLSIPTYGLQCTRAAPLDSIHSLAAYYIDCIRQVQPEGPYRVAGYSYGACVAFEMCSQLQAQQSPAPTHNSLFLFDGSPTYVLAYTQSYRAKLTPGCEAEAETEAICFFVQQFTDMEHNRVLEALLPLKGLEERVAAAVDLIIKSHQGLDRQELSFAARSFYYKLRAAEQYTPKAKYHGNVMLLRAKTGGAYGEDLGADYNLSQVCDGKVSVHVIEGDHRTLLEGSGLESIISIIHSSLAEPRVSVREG
The assay can be described thus: FASN NADPH Consumption Assay. The assay is classed as biochemical. As to conditions: human FASN purified from SKBR3 cells; starred symbols. The method in brief:
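Native human FASN purified from SKBR3 cells (60 nM final) preincubated 30 min at 37 °C with compound (2.4 nM–40 μM, 4% DMSO) in pH 7.0 phosphate buffer with 5 mM DTT. Reaction started with 0.2 mM NADPH, 50 μM butyryl-CoA, 0.5 mM malonyl-CoA; NADPH consumption followed kinetically by fluorescence (ex 340/em 460 nm); IC50 from logistic fit.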
In general, IC50 refers to the midpoint of a concentration-inhibition curve. `C=CCN(C(=O)n1nnn(-c2ccccc2Oc2ccccc2)c1=O)C1CCN(C(=O)OC(C)(C)C)CC1` yielded an IC50 of 1 to 10 µM.
In turn, `CCN(C(=O)n1nnn(-c2c(Cl)cccc2Cl)c1=O)C1CCN(C(=O)Cc2ccccc2)CC1` had an IC50 of 0.25 to 1 µM.
Consider `CCNC(=O)N1CCC(N(CC)C(=O)n2nnn(-c3c(Cl)cccc3Cl)c2=O)CC1`, for which the IC50 was 1 to 10 µM.
Compound `CCN(C(=O)n1nnn(-c2c(Cl)cccc2Cl)c1=O)C1CCN(S(C)(=O)=O)CC1` came in with an IC50 of 1 to 10 µM.
The value for `CCN(C(=O)n1nnn(-c2c(Cl)cccc2Cl)c1=O)C1CCN(C(C)=O)CC1` was 1 to 10 µM.
The compound `CN1C2CCC1CC(N(CCc1ccccc1)C(=O)n1nnn(-c3c(Cl)cccc3Cl)c1=O)C2` (stereo not shown) yielded an IC50 above 10 µM.
The value for `CCNC(=O)N1CCCC(N(CC)C(=O)n2nnn(-c3c(Cl)cccc3Cl)c2=O)C1` (stereo not shown) was 1 to 10 µM.
To `CCN(C(=O)n1nnn(-c2c(Cl)cccc2Cl)c1=O)C1CCCN(C(C)=O)C1` (stereo not shown) belongs 1 to 10 µM.
In turn, `CCN(C(=O)n1nnn(-c2c(Cl)cccc2Cl)c1=O)C1CCCN(C(=O)CCC(=O)O)C1` (stereo not shown) yielded an IC50 of 1 to 10 µM.
`CCN(C(=O)n1nnn(-c2c(Cl)cccc2Cl)c1=O)C1CCCN(C(=O)OC(C)(C)C)C1` (stereo not shown) registered an IC50 of 1 to 10 µM.
`CCOC(=O)N1CCCC(N(CC)C(=O)n2nnn(-c3c(Cl)cccc3Cl)c2=O)C1` (stereo not shown) showed an IC50 of 1 to 10 µM.
Turning to `CCN(C(=O)n1nnn(-c2c(Cl)cccc2Cl)c1=O)C1CCCN(C(=O)Cc2ccccc2)C1` (stereo not shown), the IC50 was in the range of 1 to 10 µM.
Regarding `CCN(C(=O)n1nnn(-c2c(Cl)cccc2Cl)c1=O)C1CCCN(S(C)(=O)=O)C1` (stereo not shown), the IC50 was 1 to 10 µM.
The value for `CCN(C(=O)n1nnn(-c2c(Cl)cccc2Cl)c1=O)C1CCOC(C)(C)C1` (stereo not shown) was 1 to 10 µM.
On to `O=C(NC1CCCCC1)n1nnn(-c2ccccc2)c1=O`, for which the IC50 was above 10 µM.
The compound `CCN(C(=O)n1nnn(-c2ccccc2)c1=O)C1CCCCC1` showed an IC50 above 10 µM.
The compound `CCN(C(=O)n1nnn(-c2ccccc2SC)c1=O)C1CCCCC1` came in with an IC50 of 1 to 10 µM.
`CCN(C(=O)n1nnn(-c2ccccc2Oc2ccccc2)c1=O)C1CCCCC1`: the IC50 was in the range of 1 to 10 µM.
Consider `CCc1ccccc1-n1nnn(C(=O)N(CC)C2CCCCC2)c1=O`, for which the IC50 was 1 to 10 µM.
The value for `CCN(C(=O)n1nnn(-c2ccccc2I)c1=O)C1CCCCC1` was 1 to 10 µM; that for `CCC(C)c1ccccc1-n1nnn(C(=O)N(CC)C2CCCCC2)c1=O` (stereo not shown) was 1 to 10 µM.
As to `CCN(C(=O)n1nnn(-c2ccccc2F)c1=O)C1CCCCC1`, the IC50 is 1 to 10 µM.
Compound `CCN(C(=O)n1nnn(-c2ccccc2C(C)(C)C)c1=O)C1CCCCC1` had an IC50 above 10 µM.
As to `CCN(C(=O)n1nnn(-c2ccccc2Cl)c1=O)C1CCCCC1`, the IC50 fell in the range of 1 to 10 µM.
With `CCN(C(=O)n1nnn(-c2ccccc2Br)c1=O)C1CCCCC1`, the IC50 is 1 to 10 µM.
Compound `CC(C)N(C(=O)n1nnn(-c2ccccc2Cl)c1=O)C1CCCCC1` returned an IC50 above 10 µM.
The compound `CCN(C(=O)n1nnn(-c2ccccc2OC(F)(F)F)c1=O)C1CCCCC1` had an IC50 of 1 to 10 µM.
Regarding `CCN(C(=O)n1nnn(-c2ccccc2C#N)c1=O)C1CCCCC1`, the IC50 lay in the range of 1 to 10 µM.
`CCN(C(=O)n1nnn(-c2ccccc2OC)c1=O)C1CCCCC1`: the IC50 lay in the range of 1 to 10 µM.
To `CN(C(=O)n1nnn(-c2ccccc2Cl)c1=O)C1CCCCC1` belongs 1 to 10 µM.
For `CCN(C(=O)n1nnn(-c2ccccc2C(C)C)c1=O)C1CCCCC1`, the IC50 was in the range of 1 to 10 µM.
To `CCN(C(=O)n1nnn(-c2ccccc2C)c1=O)C1CCCCC1` belongs 1 to 10 µM; to `CCCN(C(=O)n1nnn(-c2ccccc2Cl)c1=O)C1CCCCC1`, 1 to 10 µM; to `CCN(C(=O)n1nnn(-c2ccc([N+](=O)[O-])cc2)c1=O)C1CCCCC1`, 1 to 10 µM.
Compound `CCN(C(=O)n1nnn(-c2ccc(OC)cc2)c1=O)C1CCCCC1` displayed an IC50 above 10 µM.
`CCN(C(=O)n1nnn(-c2ccc(C(F)(F)F)cc2)c1=O)C1CCCCC1`: the half-maximal inhibitory concentration (IC50) is above 10 µM.
Compound `CCN(C(=O)n1nnn(-c2ccc(Cl)cc2)c1=O)C1CCCCC1` came in with an IC50 above 10 µM.
Regarding `CCN(C(=O)n1nnn(-c2ccc(N(C)C)cc2)c1=O)C1CCCCC1`, the IC50 was 1 to 10 µM.
Regarding `CCN(C(=O)n1nnn(-c2ccc(F)cc2)c1=O)C1CCCCC1`, the IC50 was above 10 µM.
For `CCN(C(=O)n1nnn(-c2cccc(F)c2)c1=O)C1CCCCC1`, the IC50 was above 10 µM.
On to `CCN(C(=O)n1nnn(-c2cccc(OC)c2)c1=O)C1CCCCC1`, for which the IC50 was above 10 µM.
As for `COc1cccc(F)c1-n1nnn(C(=O)N(C2CCCCC2)C2CCCCC2)c1=O`, the IC50 lay in the range of 1 to 10 µM.
For the compound `CCN(C(=O)n1nnn(-c2c(C)cccc2C(C)(C)C)c1=O)C1CCCCC1`, the IC50 was above 10 µM.
`CCCCc1ccc(-n2nnn(C(=O)N(CC)C3CCCCC3)c2=O)c(C)c1` showed an IC50 above 10 µM.
`CCN(C(=O)n1nnn(-c2ccc(Cl)cc2Cl)c1=O)C1CCCCC1` gave an IC50 of 1 to 10 µM.
Compound `CCN(C(=O)n1nnn(-c2ccc([N+](=O)[O-])cc2Cl)c1=O)C1CCCCC1` showed an IC50 above 10 µM.
As for `CCN(C(=O)n1nnn(-c2ccc(F)cc2F)c1=O)C1CCCCC1`, the IC50 fell in the range of 1 to 10 µM.
`CCN(C(=O)n1nnn(-c2ccc(C(F)(F)F)cc2Cl)c1=O)C1CCCCC1` registered an IC50 above 10 µM.
`CCN(C(=O)n1nnn(-c2ccc(Br)cc2Br)c1=O)C1CCCCC1` returned an IC50 of 1 to 10 µM.
The value for `CCN(C(=O)n1nnn(-c2cc(Cl)ccc2Cl)c1=O)C1CCCCC1` was 1 to 10 µM; that for `CCN(C(=O)n1nnn(-c2cc(F)ccc2F)c1=O)C1CCCCC1` was 1 to 10 µM.
In turn, `CCN(C(=O)n1nnn(-c2cccc(Cl)c2Cl)c1=O)C1CCCCC1` returned an IC50 of 1 to 10 µM.
Compound `CCN(C(=O)n1nnn(-c2cccc3nsnc23)c1=O)C1CCCCC1` yielded an IC50 of 1 to 10 µM.
In turn, `CCN(C(=O)n1nnn(-c2c(C)cc(C)cc2C)c1=O)C1CCCCC1` returned an IC50 above 10 µM.
Consider `CCN(C(=O)n1nnn(-c2c(Cl)cc(Cl)cc2Cl)c1=O)C1CCCCC1`, for which the IC50 was in the range of 1 to 10 µM.
`CCN(C(=O)n1nnn(-c2ccc(F)c(F)c2F)c1=O)C1CCCCC1` returned a half-maximal inhibitory concentration (IC50) above 10 µM.
`CN(C)N(C(=O)n1nnn(-c2ccccc2F)c1=O)C1=CCCCC1` had an IC50 of 0.25 to 1 µM.
Turning to `CN(C)N(C(=O)n1nnn(-c2ccccc2Br)c1=O)C1=CCCCC1`, the IC50 fell in the range of 0.25 to 1 µM.
`CN(C)N(C(=O)n1nnn(-c2ccccc2Cl)c1=O)C1=CCCCC1` gave an IC50 of 1 to 10 µM.
The value for `CN(C)N(C(=O)n1nnn(-c2cccc(Cl)c2)c1=O)C1=CCCCC1` was 1 to 10 µM; that for `CCNC(=O)n1nnn(-c2ccccc2)c1=O` was above 10 µM.
For the compound `C/C=C/C/C=C/CCCN(CCC)C(=O)n1nnn(-c2ccccc2Cl)c1=O`, the IC50 was 0.25 to 1 µM.
The compound `CCCCCCCCCCCCN(C)C(=O)n1nnn(-c2ccccc2Cl)c1=O` displayed an IC50 of 0.25 to 1 µM.
On to `CCN(CC)C(=O)n1nnn(-c2ccccc2Cl)c1=O`, for which the IC50 was in the range of 1 to 10 µM.
`C/C=C/C/C=C/CCCN(C)C(=O)n1nnn(-c2ccccc2Cl)c1=O` registered an IC50 of 1 to 10 µM.
In the case of `CCN(C)C(=O)n1nnn(-c2ccccc2Cl)c1=O`, the IC50 was above 10 µM.
Regarding `CCCN(C)C(=O)n1nnn(-c2ccccc2Cl)c1=O`, the IC50 was above 10 µM.
The value for `CCCCCCN(C)C(=O)n1nnn(-c2ccccc2Cl)c1=O` was 1 to 10 µM.
The compound `CC(C)N(C(=O)n1nnn(-c2ccccc2Cl)c1=O)C(C)C` returned a half-inhibitory concentration (IC50) above 10 µM.
`CCN(C(=O)n1nnn(-c2ccccc2Cl)c1=O)C(C)(C)C` registered an IC50 above 10 µM.
Regarding `CCN(CCOC(=O)[C@H](CC(C)C)NC=O)C(=O)n1nnn(-c2c(Cl)cccc2Cl)c1=O`, the IC50 is 1 to 10 µM.
Turning to `CCN(C(=O)n1nnn(-c2cccs2)c1=O)C1CCCCC1`, the IC50 was in the range of 1 to 10 µM.
`CCN(C(=O)n1nnn(-c2ccsc2)c1=O)C1CCCCC1` yielded an IC50 above 10 µM.
On to `CCN(C(=O)n1nnn(-c2c(C)nn(C)c2C)c1=O)C1CCCCC1`, for which the IC50 was above 10 µM.
As for `CCN(C(=O)n1nnn(-c2c(C)noc2C)c1=O)C1CCCCC1`, the IC50 is above 10 µM.
`CC(C)(C)OC(=O)N(C(=O)n1nnn(-c2c(F)cccc2F)c1=O)c1ccco1` registered an IC50 of 1 to 10 µM.
